Here are results for 11 compounds from ChEMBL document CHEMBL1201862, “PubChem BioAssay data set” (2004).

Test systems include A549; EKVX; HCT-15; Hs-578T; MDA-N; Malme-3M; NCI-H23; NCI-H522; OVCAR-3; OVCAR-4; PC-3; SF-295; SN12C; SNB-19; SW-620; TK-10; U-251; UACC-257; UACC-62.
Holding throughout (experiment): growth of human tumour cells (NCI), 48 h

Each structure is given as a SMILES string.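 Step 1: Grow cells in 96-well plates. Step 2: Expose to compound for 48 hours at 5 concentrations. Step 3: Interpolate endpoints linearly; if unreached, use highest concentration. GI50 = concentration required for 50% inhibition of growth.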 Activity calls are given as the source filed them. No stated cut-off is given here; in the data, active = GI50 up to about 1.1 µM and inactive = higher. Bounds are passed on as bounds.

In the case of `Oc1ccccc1CNCc1ccccc1O`, the GI50 in the test on A549 was > 100 µM (inactive); in the test on EKVX, > 100 µM (inactive); in the test on HCT-15, > 100 µM; in the test with Hs-578T it was 39 µM (inactive); in the test on MDA-N, 39.8 µM (inactive); in the test with Malme-3M, > 100 µM (inactive). Moreover, the GI50 in the test with NCI-H23, in the test with NCI-H522, in the test with OVCAR-3, in the test with OVCAR-4, in the test on PC-3 and with SF-295 was > 100 µM (inactive) in each case. Also, the GI50 in the test on SN12C, in the test with SNB-19, in the test on SW-620, with TK-10, in the test with U-251 and in the test on UACC-257 was > 100 µM (inactive) in each case. For the same compound, in the test with UACC-62, the GI50 was > 100 µM (inactive).

In the case of `Oc1ccc2ccccc2c1CN(Cc1c(O)ccc2ccccc12)C1CCCCC1`, the GI50 in the test on A549 was 19.4 µM (inactive); with EKVX it was 15.4 µM (inactive); in the test on HCT-15, 20.6 µM; with Hs-578T it was 26.4 µM (inactive); in the test on MDA-N it was 15.4 µM (inactive); in the test on Malme-3M, 15.8 µM (inactive). Besides, the GI50 is 17.1 µM (inactive) in the test on NCI-H23; 13.4 µM (inactive) with NCI-H522; 19.1 µM (inactive) in the test on OVCAR-3; 18.7 µM (inactive) in the test on OVCAR-4; 17 µM (inactive) in the test with PC-3; 37 µM (inactive) with SF-295. The GI50 in the test with SN12C was 14.4 µM (inactive); in the test on SNB-19, 28.2 µM (inactive); in the test with SW-620, 20.1 µM (inactive); with TK-10, 17.3 µM (inactive); with U-251, 20.2 µM (inactive); in the test with UACC-257, 15.3 µM (inactive). For the same compound, in the test with UACC-62, the GI50 was 16.8 µM (inactive).

As to `C(=C\N1CCCCC1)/c1nnnn1-c1ccccc1`, the GI50 is > 100 µM (inactive) in the test with A549; 23.5 µM (inactive) in the test with EKVX; 23.6 µM with HCT-15; 17 µM (inactive) in the test on Hs-578T; 32.3 µM (inactive) in the test with MDA-N; 55.5 µM (inactive) in the test on Malme-3M. The GI50 in the test on NCI-H23 is 25.2 µM (inactive); in the test on NCI-H522 it was 47 µM (inactive); with OVCAR-3 it was 30.5 µM (inactive); in the test with OVCAR-4 it was 33.4 µM (inactive); in the test on PC-3, 27.7 µM (inactive); in the test on SF-295, 21.9 µM (inactive). Also, the GI50 was 26.2 µM (inactive) with SN12C; 32.6 µM (inactive) with SNB-19; 34.8 µM (inactive) in the test with SW-620; 43.1 µM (inactive) with TK-10; 21.1 µM (inactive) with U-251; 56.2 µM (inactive) with UACC-257. Also, the GI50 in the test with UACC-62 was 15.6 µM (inactive).

For `CC(C)NC(=O)OCc1c(COC(=O)NC(C)C)c(-c2cc[n+](COC(=O)C(C)(C)C)cc2)n2c1CCC2`, the GI50 in the test on A549 is > 100 µM (inactive); in the test with EKVX, > 100 µM (inactive); with HCT-15, > 100 µM; with Hs-578T it was > 100 µM (inactive); in the test on MDA-N, > 100 µM (inactive); with Malme-3M it was > 100 µM (inactive). Moreover, the GI50 in the test with NCI-H23, with NCI-H522, with OVCAR-3, in the test on OVCAR-4, with PC-3 and in the test with SF-295 was > 100 µM (inactive) throughout. Further, the GI50 in the test with SN12C, in the test with SNB-19, in the test with SW-620, in the test with TK-10, in the test on U-251 and with UACC-257 was > 100 µM (inactive) each time. The GI50 with UACC-62 is > 100 µM (inactive).

For `COc1cc(C2SCC(=O)N2c2ccc(Cl)cc2)cc(OC)c1OC` (centres undefined), the GI50 was > 100 µM (inactive) with A549; 3.15 µM (inactive) in the test on EKVX; 13.9 µM in the test with HCT-15; > 100 µM (inactive) in the test on Hs-578T; 3.05 µM (inactive) in the test on MDA-N; > 100 µM (inactive) with Malme-3M. For the same compound, the GI50 was 26.2 µM (inactive) in the test on NCI-H23; 31.8 µM (inactive) with NCI-H522; 22.2 µM (inactive) in the test with OVCAR-3; 5.81 µM (inactive) in the test with OVCAR-4; 46.2 µM (inactive) with PC-3; 4.95 µM (inactive) in the test with SF-295. Besides, the GI50 in the test on SN12C is > 39.5 µM (inactive); in the test on SNB-19 it was > 100 µM (inactive); in the test on SW-620 it was 19 µM (inactive); in the test on TK-10 it was > 100 µM (inactive); in the test on U-251 it was > 79.4 µM (inactive); in the test on UACC-257, 22.6 µM (inactive). Moreover, the GI50 in the test with UACC-62 is < 0.0205 µM (active).

Consider `CC(C)[Si]1(C(C)C)OCC2OC(n3ccc(=O)[nH]c3=O)C([Se]c3ccccc3)C2O[Si](C(C)C)(C(C)C)O1` (centres undefined), for which the GI50 is 9.46 µM (inactive) in the test with A549; 4.93 µM (inactive) in the test with EKVX; 4.39 µM in the test on HCT-15; 0.762 µM (active) with Hs-578T; 3.4 µM (inactive) in the test with MDA-N; 2.81 µM (inactive) with Malme-3M. The GI50 was 3.57 µM (inactive) in the test with NCI-H23; 2.1 µM (inactive) in the test with NCI-H522; 4.52 µM (inactive) with OVCAR-3; 2.88 µM (inactive) in the test on OVCAR-4; 3.35 µM (inactive) with PC-3; 5.9 µM (inactive) in the test on SF-295. In addition, the GI50 in the test with SN12C is 2.29 µM (inactive); in the test on SNB-19, 0.261 µM (active); in the test on SW-620, 2.32 µM (inactive); with TK-10, 7.46 µM (inactive); with U-251 it was 2.07 µM (inactive); in the test with UACC-257, 4.31 µM (inactive). In addition, in the test with UACC-62, the GI50 was 4.71 µM (inactive).

On to `CCOC(=O)/C=C(\C(=O)OCC)n1cnc2c(N)ncnc21`, for which the GI50 in the test with A549 is 17.1 µM (inactive); in the test on EKVX it was 8.2 µM (inactive); in the test on HCT-15, 3.08 µM; in the test with Hs-578T, 19.7 µM (inactive); with MDA-N, 14.6 µM (inactive); in the test on Malme-3M, 4.29 µM (inactive). In addition, the GI50 in the test with NCI-H23 is 13.7 µM (inactive); in the test on NCI-H522, 1.6 µM (inactive); in the test on OVCAR-3 it was 8.41 µM (inactive); with OVCAR-4, 15.2 µM (inactive); in the test on PC-3 it was 13.3 µM (inactive); in the test on SF-295 it was 16.8 µM (inactive). Besides, the GI50 with SN12C was 5.19 µM (inactive); with SNB-19, 16.1 µM (inactive); in the test with SW-620, 2.74 µM (inactive); in the test on TK-10, 5.02 µM (inactive); with U-251, 7.94 µM (inactive); with UACC-257, 14.5 µM (inactive). Also, in the test on UACC-62, the GI50 was 10.7 µM (inactive).

For the compound `COc1ccccc1/C=N/Nc1nnc2c3ccccc3c3ncccc3c2n1`, the GI50 in the test on A549 was > 100 µM (inactive); in the test with EKVX it was 43.1 µM (inactive); in the test on HCT-15, > 100 µM; with Hs-578T, 21 µM (inactive); in the test on MDA-N it was > 100 µM (inactive); with Malme-3M it was 49.1 µM (inactive). For the same compound, the GI50 in the test with NCI-H23 is > 100 µM (inactive); with NCI-H522, 70.6 µM (inactive); with OVCAR-3, 47.2 µM (inactive); in the test on OVCAR-4, 17.8 µM (inactive); in the test on PC-3 it was > 100 µM (inactive); in the test on SF-295, 6.14 µM (inactive). The GI50 in the test on SN12C was 87.5 µM (inactive); in the test with SNB-19, 39.2 µM (inactive); with SW-620, > 100 µM (inactive); in the test on TK-10, 28.6 µM (inactive); in the test on U-251, 37.3 µM (inactive); in the test with UACC-257 it was > 100 µM (inactive). Also, the GI50 in the test on UACC-62 was 48.8 µM (inactive).

Consider `N#Cc1nc(/C=C/c2cccnc2)oc1N`, for which the GI50 in the test on A549 is 28.4 µM (inactive); with EKVX, > 100 µM (inactive); with HCT-15, > 100 µM; with Hs-578T, > 100 µM (inactive); with MDA-N, > 100 µM (inactive); in the test on Malme-3M, > 100 µM (inactive). The GI50 with NCI-H23, in the test on NCI-H522, in the test on OVCAR-3, with OVCAR-4, in the test with PC-3 and in the test with SF-295 was > 100 µM (inactive) each time. Moreover, the GI50 in the test with SN12C, in the test on SNB-19, with SW-620, in the test on TK-10, in the test on U-251 and with UACC-257 was > 100 µM (inactive) each time. Also, in the test on UACC-62, the GI50 is > 100 µM (inactive).

Take `Cc1ccc(S(=O)(=O)N[C@@H](Cc2ccccc2)C(=O)CCl)cc1` [TPCK]: the GI50 with A549 was 15.7 µM (inactive); in the test on EKVX it was 17.2 µM (inactive); in the test on HCT-15, 16 µM; in the test with Hs-578T, 1.82 µM (inactive); with MDA-N, 14.3 µM (inactive); in the test on Malme-3M, 14.6 µM (inactive). Also, the GI50 in the test with NCI-H23 is 13.6 µM (inactive); in the test on NCI-H522 it was 9.68 µM (inactive); in the test on OVCAR-3 it was 15.8 µM (inactive); in the test on OVCAR-4, 4.93 µM (inactive); with PC-3, 15.4 µM (inactive); in the test on SF-295, 18.9 µM (inactive). In addition, the GI50 was 12.7 µM (inactive) in the test with SN12C; 16.9 µM (inactive) in the test with SNB-19; 11.5 µM (inactive) with SW-620; 17.2 µM (inactive) in the test with TK-10; 16.2 µM (inactive) in the test on U-251; 12.3 µM (inactive) with UACC-257. Also, the GI50 in the test on UACC-62 is 13.6 µM (inactive).

As for `O=C1c2c(Br)sc(Br)c2[C@@H](Cl)[C@H]1Cl`, the GI50 in the test with A549 is 29 µM (inactive); in the test on EKVX it was 21.7 µM (inactive); with HCT-15 it was 19.7 µM; with Hs-578T, 36.6 µM (inactive); in the test on MDA-N, 11 µM (inactive); with Malme-3M, 19.1 µM (inactive). For the same compound, the GI50 is 12.9 µM (inactive) with NCI-H23; 3.07 µM (inactive) with NCI-H522; 14.3 µM (inactive) in the test on OVCAR-3; 18.2 µM (inactive) in the test with OVCAR-4; 18.7 µM (inactive) in the test with PC-3; 20.5 µM (inactive) in the test with SF-295. In addition, the GI50 with SN12C was 8.87 µM (inactive); with SNB-19 it was 18.9 µM (inactive); in the test with SW-620, 5.08 µM (inactive); in the test with TK-10 it was 29 µM (inactive); in the test with U-251, 14.5 µM (inactive); in the test with UACC-257 it was 15.9 µM (inactive). Further, the GI50 in the test with UACC-62 was 18.2 µM (inactive).
